Measured values from US20130203649A1, “INHIBITORS OF TLR SIGNALING BY TARGETING TIR DOMAIN INTERFACES” (UNIVERSITY OF MARYLAND, BALTIMORE, priority 2012, published 2013).
No end group written: not given here.

Experiments:
TLR4 [1] = assay: LPS-induced cytokine secretion by mouse macrophages (ELISA/multiplex); assay type: cell-based; settings: 5 or 20 μM peptide; LPS 100 ng/ml; supernatants 24 h
Method: Cytokine secretion was measured in supernatant samples collected at 6 or 24 h time points and stored at −80° C. Samples were analyzed by a multiplex assay at the University of Maryland Baltimore Cytokine Core Facility using a Luminex 100 reader and Softmax Pro software, or by ELISA kits for mouse IL-6 or TNF-α from BioLegend (San Diego, Calif.) and LT-4000 microplate reader.
A total of 2×10^6 cells was plated in 12-well plates and treated with peptides for 30 min prior to LPS stimulation. TNF-α, IL-1β, IL-6, and IFN-β were measured using ELISA kits from BioLegend (San Diego, Calif.), as recommended by the manufacturer.

TLR4 [2] = assay: Inhibition of TLR4 signaling in thioglycollate-elicited mouse macrophages (effective concentration, overall inhibitory activity); assay type: cell-based; settings: TLR4 pathway; thioglycollate-elicited mouse macrophages
Method: (§1) C57BL/6J mice were obtained from The Jackson Laboratory (Bar Harbor, Me.). Primary peritoneal macrophages were obtained by peritoneal lavage 4 days after intraperitoneal injection (3 ml) of sterile 3% thioglycolate broth. Washed cells were resuspended in RPMI 1640 which contained 2% FBS, 1% penicillin:streptomycin and 2 mM L-glutamine. After plating, cells were incubated overnight at 37° C. and then washed with PBS to remove non-adherent cells. Cells were exposed to peptides 30 min before stimulation with a TLR agonist.
TIRAP/Mal functions to facilitate MyD88 recruitment to the activated TLR4 and TLR2, presumably through a simultaneous interaction with receptor and MyD88 TIR domains. Therefore, multiple TIR:TIR interaction sites are expected in TIRAP TIR. The decoy peptide approach was used to obtain leads on the functional protein-protein interfaces within TIRAP/Mal, a TLR adapter protein. To this end, eleven TIRAP TIR-derived decoy peptides were designed to be structurally homologous to the TLR4 TIR-derived decoy peptides used previously (1), so that each peptide represents a non-fragmented patch of the TIRAP TIR surface, with the entire domain encompassed by the set of peptides. The TIRAP TIR-derived decoy peptides were synthesized in tandem with the cell-permeating sequence of Antennapedia homeodomain (21) and each peptide was tested for the ability to inhibit TLR4 and TLR2 signaling in primary mouse macrophages. Peptide sequences and the structural regions they represent are shown in reference (30).
C57BL/6J mice were obtained from The Jackson Laboratory (BarHarbor, Me.). Harvesting, culturing, and stimulation of peritoneal macrophages were described in previous publications (1, 18, 19). Escherichia coli K235 LPS (34) was used at the final concentration of 100 ng/ml. The 2,3-bis(palmitoyloxy)-(2-RS)-propyl-N-palmitoyl-(R)-Cys-Ser-Lys4-OH (P3C) and S[2,3-bis(palmitoyloxy)-(2-RS)-propyl]-[R]-Cys-Ser-Lys4-OH (P2C) (EMC Microcollections, Tubingen, Germany) were used at 500 and 50 ng/ml, respectively. Oligonucleotide (ODN) 1668 and low m.w. polyinosinic-polycytidylic acid [poly(I:C)] in complex with LyoVec were obtained from InvivoGen; these agonists were used at 2.5 μM and 400 ng/ml, respectively.

TLR4 [3] = assay: LPS-induced STAT1-Y701 phosphorylation in macrophages (immunoblotting); assay type: cell-based, mouse; settings: 2 h after LPS
TLR4 [4] = assay: LPS-induced cytokine mRNA expression in mouse macrophages (real-time RT-PCR); assay type: cell-based
Method: as §1
Total cellular RNA was isolated using Tripure from Roche (San Francisco, Calif.) following manufacture's protocol. RNA was then reverse transcribed using AMV Reverse Transcriptase from Promega (Madison, Wis.) with poly-T priming as per manufacturer's directions. cDNA was then quantified by real-time PCR using Applied Biosystems Fast SYBR Green PCR Master Mix and an ABI Prism 7500HT cycler. Primers used for detection: hypoxanthine phosphoribosyltransferase (HPRT) (forward: […] (SEQ ID NO:51), reverse: […] (SEQ ID NO:52)), TNFα (forward: […] (SEQ ID NO:53), reverse: […] (SEQ ID NO:54)), IL-1β (forward: […] (SEQ ID NO:55), reverse: […] (SEQ ID NO:56)), IFNβ (forward: […] (SEQ ID NO:57), reverse: CTCGGACCACCATCCAGG (SEQ ID NO:58)) and RANTES (forward: […] (SEQ ID NO:59), reverse: […] (SEQ ID NO:60)). The primers were designed using Primer Express 2.0 (Applied Biosystems). Using HPRT as reference, the ΔCt method was used to calculate relative gene expression. One-way ANOVA was preformed, as well as Dunnett's multiple comparison post hoc test with a p≦0.01 selected as the level of significance.
Total RNA was isolated with Nucleospin RNA II kits (Macherey-Nagel, Bethlehem, Pa.), followed by DNase digestion. cDNA was synthesized from 1 μg RNA using Goscript transcriptase (Promega), and subjected to real-time PCR with gene-specific primers for HPRT, TNF-α, IL-1β, IFNβ, and RANTES on H7900 ABI system using Fast SYBR Green master mix (Applied Biosystems, Foster City, Calif.).
To evaluate peptide-inhibitory activities, we first measured LPS-induced cytokine mRNA expression. […] […] Decoy peptide TM4 is derived from the BB loop of TRAM TIR; we previously identified this peptide as an effective TLR4 inhibitor (19).

TLR4 [5] = assay: LPS-induced MAPK (ERK, JNK, p38) activation in mouse macrophages (Western analysis); assay type: cell-based
Method: Cellular protein extracts were isolated by addition of 240 μL per well cold lysate buffer (20 mM Tris, 50 mM NaCl, 1.5 mM MgCl2, 2 mM EDTA, 10 mM NaF, 2 Mm DTT, 1 mM Na3VO4, 1% Triton). Cells were incubated with lysis solution for 30 min on agitator at 4° C. Lysate was then collected and centrifuged at 14,000 g for 10 minutes at 4° C. After quantification using BioRad protein assay, protein samples were added to Laemmli buffer and then boiled for 10 min. Samples were then resolved by SDS-10% PAGE in Tris/glycine/SDS buffer (25 mM Tris, 250 mM glycine, 0.1% SDS), and transferred onto Immobilon P transfer membranes (Millipore, Bedford, Mass.) (100 V, 1.5 h, 4° C.). Membranes were blocked for 1 h in TBS-T (20 mM Tris-HCl, 150 mM NaCl, 0.1% Tween 20) containing 5% nonfat milk, then probed for overnight at 4° C. with the respective antibodies (Abs) (dilution 1:1000 in TBS-T with 2% BSA). After washing in TBS-T, membranes were incubated with secondary HRP-conjugated, donkey anti-rabbit IgG (1:10,000 dilution in TBS-T with 5% nonfat milk) for 1 h at room temperature. Membranes washed five times in TBS-T before development with ECL reagents (GE Healthcare) according to manufacturer's directions.
HEK293T cells were transfected with indicated plasmids using Superfect Transfection Reagent (Qiagen). Twenty-four hours posttransfection, the cells were lysed using the buffer containing 20 mM HEPES (pH 7.4), 150 mM NaCl, 10 mM NaF, 2 mM Na3VO4, 1 mM EDTA, 1 mM EGTA, 0.5% Triton X-100, 0.1 M DTT, 1 mM PMSF, and protease inhibitor mixture (Roche, Indianapolis, Ind.). Rabbit Ab against phospho-ERK, phospho-JNK, MyD88 (D80F5), STAT1-Y701, total STAT1, and GAPDH were purchased from Cell Signaling Technology (Beverly, Mass.). Rabbit anti-phospho-p38 Ab was purchased from Promega (Madison, Wis.). Goat anti-TLR4 (M−16), rabbit anti-TLR4 (H-80), anti-HA-HRP (F-7), and rabbit anti-b-actin Ab were purchased from Santa Cruz Biotechnology. Mouse anti-Flag M2 and rabbit anti-HA Ab were from Sigma-Aldrich. GFP Ab (A1122) was from Invitrogen. Protein was quantified using Bio-Rad protein quantification kit. Equal amount of protein was loaded and analyzed by 10% SDS-PAGE and immunoblotting. The cell extracts containing equal amount of protein were incubated with 1 μg Ab for 2 h, followed by 4-h incubation with 25 μl protein G agarose beads (Roche); the beads were then washed four times with lysis buffer, boiled in […] sample loading buffer, and analyzed by immunoblotting.
We next examined whether TRAM peptides inhibit the TLR4-mediated p38, ERK, and JNK MAPK activation. Murine macrophages pretreated with peptides for 30 min were challenged with LPS. Cell lysates were collected 30 min post-stimulation and analyzed for MAPK phosphorylation by Western analysis. Consistent with peptide effects on steady-state mRNA, both TM4 and TM6 inhibited activation of all three MAPKs (FIG. 5C). The inhibition of MAPKs by TM4 or TM6 was long lasting; it persisted for at least 1 h after LPS stimulation (data not shown). To characterize further the effects of TRAM peptides on MAPKs, murine macrophages were treated with TRAM peptides, but not challenged by LPS.

TLR4 [6] = settings: from references (1, 22); cited from earlier work

| Sequence | LPS-induced cytokine secretion (TLR4 [1]) | Effective conc. (TLR4 [2]) [µM] | LPS-induced STAT1-Y701 phosphorylation (TLR4 [3]) | LPS-induced (TLR4-mediated) cytokine mRNA expression (TLR4 [4]; 5 or 20 μM peptide 30 min before LPS, 1 or 5 h) | LPS-induced p38, ERK, and JNK MAPK activation (TLR4 [5]; lysates 30 min after LPS) | Inhibition of TLR4 (overall) (TLR4 [6]) | LPS-induced cytokine mRNA induction (TLR4 [4]; peritoneal macrophages (FIG. 14A)) | LPS-induced activation of ERK and JNK MAPKs (TLR4 [5]; peritoneal macrophages (FIG. 14B)) |
| --- | --- | --- | --- | --- | --- | --- | --- | --- |
| RQIKIWFQNRRMKWKKCEEFQVPGRGELH [TF4] | inhibit | 20 | inhibit | inhibit | inhibit |  |  |  |
| RQIKIWFQNRRMKWKKLHYRDFIPGVAIAA [4R4/4BB] |  | 20 |  |  |  | quite potent inhibitor | potently inhibit | potently inhibit |
